The text below walks through data of patent US20190216829A1, “Anticancer Compositions” (ARAGON PHARMACEUTICALS, INC., priority 2016, published 2019).

This data set in a line: Solubility of ARN-509 forms in water. It is filed as physicochemical. How it is done: Solubility of Form A: 0.01 mg/ml in water.
Solubility of Form B: 0.004 mg/ml in water.

≈ marks a conversion by molar mass, not a printed value.

As a reminder, the Solubility is the concentration that dissolves in the medium under given conditions. Higher therefore signals much dissolved substance. As for `CNC(=O)c1ccc(N2C(=S)N(c3cnc(C#N)c(C(F)(F)F)c3)C(=O)C23CCC3)cc1F` [Form A, 4-[7-(6-cyano-5-trifluoromethylpyridin-3-yl)-8-oxo-6-thioxo-5,7-diazaspiro[3.4]oct-5-yl]-2-fluoro-N-methylbenzamide], the Solubility was 10 µg/mL (≈ 20.9 µM).
In turn, `CNC(=O)c1ccc(N2C(=S)N(c3cnc(C#N)c(C(F)(F)F)c3)C(=O)C23CCC3)cc1F` [Form B, 4-[7-(6-cyano-5-trifluoromethylpyridin-3-yl)-8-oxo-6-thioxo-5,7-diazaspiro[3.4]oct-5-yl]-2-fluoro-N-methylbenzamide] showed a Solubility of 4 µg/mL (≈ 8.38 µM). Compared with the last compound, the Solubility is about 2.5-fold lower.
